From ChEMBL document CHEMBL2046330, “Structure-based design of novel benzoxazinorifamycins with potent binding affinity to wild-type and rifampin-resistant mutant Mycobacterium tuberculosis RNA polymerases” (J Med Chem, 2012) come the findings set out here.

Series [1] has as its system Mycobacterium tuberculosis. Description: microbe, parasite or virus in culture. Particulars: H37Rv, 168 h; call rule not given here.
Series [2] has as its system Mycobacterium tuberculosis. Description: microbe, parasite or virus in culture. Particulars: H37Rv, 264 h.
Description: Antitubercular activity against Mycobacterium tuberculosis H37Rv in anaerobic conditions after 11 days by luminescnece-based low-oxygen recovery assay
The nature of series [3]: Inhibition of Mycobacterium tuberculosis wild type RNA polymerase by rolling circle transcription assay in the absence of sigmaA factor.
A short description of series [4]: Inhibition of Mycobacterium tuberculosis wild type RNA polymerase by rolling circle transcription assay in the presence of sigmaA factor.
The target in series [5] is T1, PXR (NR1I2) (Homo sapiens, UniProt O75469).
T1 sequence (O75469 whole entry): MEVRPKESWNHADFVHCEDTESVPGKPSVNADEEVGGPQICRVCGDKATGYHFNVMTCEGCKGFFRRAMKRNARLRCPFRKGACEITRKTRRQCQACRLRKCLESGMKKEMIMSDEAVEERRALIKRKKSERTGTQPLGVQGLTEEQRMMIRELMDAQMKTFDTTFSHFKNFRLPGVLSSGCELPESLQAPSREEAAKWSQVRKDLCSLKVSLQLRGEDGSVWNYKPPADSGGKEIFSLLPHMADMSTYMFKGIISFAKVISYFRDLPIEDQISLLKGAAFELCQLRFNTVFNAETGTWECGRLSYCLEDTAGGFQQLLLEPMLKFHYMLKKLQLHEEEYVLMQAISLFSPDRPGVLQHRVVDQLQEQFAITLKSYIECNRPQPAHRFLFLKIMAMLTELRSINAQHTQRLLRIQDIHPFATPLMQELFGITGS
Description: Activation of PXR in human DPX2 cells at 6.25 uM after 24 hrs by luciferase reporter gene assay relative to control. The class given is cell-based. Particulars: read-out: FC. In general terms: In a reporter assay the amount or activity of a reporter protein is the signal.

Series [6] in a line: Cytotoxicity against human DPX2 cells expressing PXR assessed as decrease in cell viability at >6.25 uM after 24 hrs. The class given is ADME, cell-based. The conditions noted are these: dpx2, 24 h.
Series [7] in a line: Selectivity index, ratio of cytotoxicity against human DPX2 cells to IC50 for Mycobacterium wild type RNA polymerase. Format: toxicity, cell-based. The conditions noted are these: read-out: Selectivity Index.
Series [8] can be described thus: Metabolic stability in mouse microsomes assessed as compound remaining after 30 mins. Format: ADME, Microsome. The conditions noted are these: read-out: Stability.
Series [9] can be described thus: Metabolic stability in human microsomes assessed as compound remaining after 30 mins. The class given is ADME, Microsome. The conditions noted are these: read-out: Stability.
The nature of series [10]: Half life in mouse microsomes. Format: ADME, Microsome.
The nature of series [11]: Half life in human microsomes. The class given is ADME, Microsome.
Series [12] concerns Blood. Description: Drug uptake in BALB/c mouse blood at 10 mg/kg, po administered as single dose. Set-up: dose 10 mg/kg, route oral. Format: ADME, organism-based. The conditions noted are these: in vivo, BLD = below limit of detection.
A short description of series [13]: Cmax in BALB/c mouse at 10 mg/kg, po administered as single dose. On the set-up: dose 10 mg/kg, route oral. Particulars: in vivo. The class given is ADME, organism-based.
A short description of series [14]: Tmax in BALB/c mouse at 10 mg/kg, po administered as single dose. Format: ADME, organism-based. Set-up: dose 10 mg/kg, route oral. The conditions noted are these: in vivo.
The test system of series [15] is Blood. Description: Drug uptake in BALB/c mouse blood at 10 mg/kg, po administered qd for 5 days. The conditions noted are these: in vivo, 120 h. Set-up: dose 10 mg/kg, route oral. Format: ADME, organism-based.
Series [16] in a line: Cmax in BALB/c mouse at 10 mg/kg, po administered qd for 5 days. The class given is ADME, organism-based. Set-up: dose 10 mg/kg, route oral. Particulars: in vivo.
A short description of series [17]: Tmax in BALB/c mouse at 10 mg/kg, po administered qd for 5 days. The class given is ADME, organism-based. Set-up: dose 10 mg/kg, route oral. Particulars: in vivo.
Another series has as its system Mus musculus. Description: Ratio of Cmax in BALB/c mouse at 10 mg/kg, po administered qd for 5 days to Cmax in BALB/c mouse at 10 mg/kg, po administered as single dose. The class given is ADME, organism-based. The conditions noted are these: in vivo, 120 h.
Series [18] can be described thus: Drug uptake in BALB/c mouse lung at 10mg/kg, po administered qd for 5 days. Format: ADME, organism-based. The conditions noted are these: read-out: Drug uptake.
Series [19] in a line: T>MIC in BALB/c mouse at 10 mg/kg, po administered qd for 5 days. Format: functional.
The nature of series [20]: Apparent plasma half life in BALB/c mouse at 10 mg/kg, po administered qd for 5 days. Format: ADME, organism-based. On the set-up: dose 10 mg/kg, route oral. Particulars: read-out: t1/2(app) (converted).
For series [21], the target named is T2, Nuclear receptor subfamily 1 group I member 2 (Homo sapiens, UniProt O75469).
T2 sequence (O75469 whole entry): T1 sequence (O75469 whole entry)
Description: Activation of PXR in human DPX2 cells at <100 uM after 24 hrs by luciferase reporter gene assay. The class given is cell-based. The conditions noted are these: dpx2, 24 h.

The target of series [22] is T1, PXR (NR1I2). Description: Activation of PXR in human DPX2 cells at 100 uM after 24 hrs by luciferase reporter gene assay relative to control. The class given is cell-based. The conditions noted are these: read-out: FC.
The nature of series [23]: Cytotoxicity against human DPX2 cells expressing PXR assessed as decrease in cell viability at 100 uM after 24 hrs relative to control. Format: ADME, cell-based. Particulars: dpx2, 24 h.
Series [24] in a line: Half life in human. Format: ADME, organism-based. The conditions noted are these: in vivo.
Series [25] concerns the target T2, Nuclear receptor subfamily 1 group I member 2. Description: Activation of PXR in human DPX2 cells after 24 hrs by luciferase reporter gene assay. The class given is cell-based.
For series [26], the target named is T1, PXR (NR1I2). Description: Activation of PXR in human DPX2 cells after 24 hrs by luciferase reporter gene assay relative to control. The class given is cell-based. Particulars: read-out: FC.
Series [27] can be described thus: Cytotoxicity against human DPX2 cells expressing PXR assessed as decrease in cell viability at 25 uM after 24 hrs. The conditions noted are these: dpx2, 24 h. The class given is ADME, cell-based.

Each structure is given as a SMILES string. ≈ marks a conversion by molar mass, not a printed value. Bounds are passed on as bounds.

In [1], `CN[C@@H]1[C@H](O[C@H]2[C@H](O[C@H]3[C@H](O)[C@@H](O)[C@H](N=C(N)N)[C@@H](O)[C@@H]3N=C(N)N)O[C@@H](C)[C@]2(O)C=O)O[C@@H](CO)[C@H](O)[C@H]1O` [STREPTOMYCIN] returned an MIC90 of 0.46 µM (≈ 0.268 µg/mL).

In the case of `NNC(=O)c1ccncc1` [ISONIAZID], the MIC90 was 0.24 µM (≈ 0.0329 µg/mL) in [1] and over 128 µM in series [2].

A word on the IC50: it is the concentration needed to halve the response being measured. The term Cmax denotes the peak of the concentration-time curve. The Tmax is the time at which the peak concentration occurs. Regarding `CCN(CC)CCOc1cccc2oc3c4c(=O)c5c(O)c(C)c6c(c5c-3nc12)C(=O)[C@@](C)(O/C=C/[C@H](OC)[C@@H](C)[C@@H](OC(C)=O)[C@H](C)[C@H](O)[C@H](C)[C@@H](O)[C@@H](C)/C=C/C=C(/C)C(=O)N4)O6`, the IC50 in series [3] and in series [4] was under 0.01 µM each time. Besides, the fold induction at 24 h, 6.25 µM at PXR (NR1I2) [5] was 3. In series [6], the Activity result is “Toxic”. Also, the selectivity ratio in [7] was 1000. The remaining at 0.5 h in series [8] is 86%; in series [9], 68%. In addition, the values for the half-life in [10], in series [11] and in series [20] were 2.35 h, 0.9 h and 1 h, respectively. Further, the Drug uptake entry in the series on Blood [12] is reported as “BLD”; in the series on Blood [15], “Active”. Besides, the Cmax in series [13] amounted to 18.5 nM; in [16], 1740 nM. The Tmax amounted to 1 h in series [14] and 2 h in series [17]. The Ratio in the series with Mus musculus is recorded as 100. Further, the concentration at 120 h in [18] was 400 nM. The “T>MIC” value in series [19] came out at 4 h. Besides, the MIC90 in series [1] turned out to be 0.02 µM (≈ 0.018 µg/mL); in series [2], 0.37 µM (≈ 0.333 µg/mL).

Turning to `CO[C@H]1/C=C/O[C@@]2(C)Oc3c(C)c(O)c4c(=O)c(c5oc6cc(N7CCN(CC(C)C)CC7)cc(O)c6nc-5c4c3C2=O)NC(=O)/C(C)=C\C=C\[C@H](C)[C@H](O)[C@@H](C)[C@@H](O)[C@@H](C)[C@H](OC(C)=O)[C@@H]1C` [RIFALAZIL], the IC50 was 0.0115 µM in [3] and under 0.01 µM in series [4]. The Activity entry in series [21] is recorded as “Not Active”. The fold induction at 24 h, 100 µM at PXR (NR1I2) [22] was determined as 2. The “fold change (FC)” value in series [23] is given as 2. Moreover, the figures for the remaining at 0.5 h in series [8] and in series [9] were 67% and 73%, respectively. Also, the half-life in [10] is 0.883 h; in series [11], 1.08 h; in series [24], 60 h. The MIC90 was under 0.004 µM in series [1] and under 0.017 µM in series [2].

As for `CO[C@H]1/C=C/O[C@@]2(C)Oc3c(C)c(O)c4c(O)c(c(/C=N/N5CCN(C)CC5)c(O)c4c3C2=O)NC(=O)/C(C)=C\C=C\[C@H](C)[C@H](O)[C@@H](C)[C@@H](O)[C@@H](C)[C@H](OC(C)=O)[C@@H]1C` [RIFAMPIN], the MIC90 was determined as 0.13 µM (≈ 0.107 µg/mL) in series [1] and 0.46 µM (≈ 0.379 µg/mL) in [2].

The term EC50 denotes the concentration giving half of the maximal effect. The low end stands for greater potency, the high end for weaker potency. As to `CO[C@H]1/C=C/O[C@@]2(C)Oc3c(C)c(O)c4c(=O)c(c5oc6cccc(OCCCCN7CCN(C(=O)Cn8ccnc8)CC7)c6nc-5c4c3C2=O)NC(=O)/C(C)=C\C=C\[C@H](C)[C@H](O)[C@@H](C)[C@@H](O)[C@@H](C)[C@H](OC(C)=O)[C@@H]1C`, the IC50 in series [3] and in series [4] was under 0.01 µM throughout. This compound registered an EC50 in series [25] of 5.5 µM. In addition, the fold induction at 24 h at PXR (NR1I2) [26] turned out to be 5.9. In [27], the Activity entry is listed as “Toxic”. Besides, the MIC90 came out at 0.07 µM (≈ 0.0734 µg/mL) in [1] and 0.4 µM (≈ 0.42 µg/mL) in series [2].

In [1], `COc1c(N2C[C@@H]3CCCN[C@@H]3C2)c(F)cc2c(=O)c(C(=O)O)cn(C3CC3)c12` [MOXIFLOXACIN] yielded an MIC90 of 0.46 µM (≈ 0.185 µg/mL).

`O=[N+]([O-])c1cn2c(n1)OC[C@@H](OCc1ccc(OC(F)(F)F)cc1)C2` [PRETOMANID]: the MIC90 in series [2] was determined as 2.53 µM (≈ 0.909 µg/mL).

For the compound `CO[C@H]1/C=C/O[C@@]2(C)Oc3c(C)c(O)c4c(=O)c(c5oc6cccc(OCCCCN7CCN(CCn8ccnc8)CC7)c6nc-5c4c3C2=O)NC(=O)/C(C)=C\C=C\[C@H](C)[C@H](O)[C@@H](C)[C@@H](O)[C@@H](C)[C@H](OC(C)=O)[C@@H]1C`, the IC50 in [3] and in [4] was under 0.01 µM in each case. Moreover, the fold induction at 24 h, 6.25 µM on PXR (NR1I2) [5] was 3. Besides, the Activity result in [6] is listed as “Toxic”. Further, the selectivity ratio in series [7] is 1000. The MIC90 came out at 0.08 µM (≈ 0.0828 µg/mL) in series [1] and 0.35 µM (≈ 0.362 µg/mL) in [2].
